From patent publication US11667646B2, “Solid state forms of rucaparib and of rucaparib salts” (ASSIA CHEMICAL INDUSTRIES LTD., priority 2017, dated 2023)
Structures can show the parent of a compound that is named as a salt.

Legend:
[1] = Solid state stability at controlled relative humidity, room temperature, open Petri dish; type: physicochemical
Hygroscopicity = type: physicochemical
[2] = Kinetic solubility at various pH ranges; type: physicochemical
[3] = API mass increase of the salt vs. the free base
Compressibility = type: physicochemical
[4] = 20-100% relative humidity (RH) at room temperature (RT) in open Petri dish

Row | period of stability [1, 4] | hygroscopicity (Hygroscopicity) | kinetic solubility [2] | API mass increase of the salt vs. the free base [3] | compressibility properties (Compressibility) | period of stability ([1]; 20-40% relative humidity (RH) at room temperature (RT) in open Petri dish) | Structure (SMILES)
1 | at least 1 month | non-hygroscopic | improved | no API mass increase | – | – | CNCc1ccc(-c2[nH]c3cc(F)cc4c3c2CCNC4=O)cc1 [Crystalline Form C of Rucaparib base, 8-fluoro-2-{4-[(methylamino)methyl]phenyl}-1,3,4,5-tetrahydro-6H-azepino[5,4,3-cd]indol-6-one]
2 | at least 1 month | non-hygroscopic | improved | no API mass increase | – | – | CNCc1ccc(-c2[nH]c3cc(F)cc4c3c2CCNC4=O)cc1 [Crystalline Form I of Rucaparib base, 8-fluoro-2-{4-[(methylamino)methyl]phenyl}-1,3,4,5-tetrahydro-6H-azepino[5,4,3-cd]indol-6-one]
3 | at least 1 month | non-hygroscopic | improved | 9% | good | – | CNCc1ccc(-c2[nH]c3cc(F)cc4c3c2CCNC4=O)cc1 [Crystalline Form IV of Rucaparib Hemi-Edisylate] [8-fluoro-2-{4-[(methylamino)methyl]phenyl}-1,3,4,5-tetrahydro-6H-azepino[5,4,3-cd]indol-6-one Hemi-Edisylate]
4 | – | – | – | no API mass increase | – | at least 1 month | CNCc1ccc(-c2[nH]c3cc(F)cc4c3c2CCNC4=O)cc1 [Crystalline Form II of Rucaparib base, 8-fluoro-2-{4-[(methylamino)methyl]phenyl}-1,3,4,5-tetrahydro-6H-azepino[5,4,3-cd]indol-6-one]
5 | – | – | – | 72% | – | – | CNCc1ccc(-c2[nH]c3cc(F)cc4c3c2CCNC4=O)cc1 [Rucaparib camsylate, 8-fluoro-2-{4-[(methylamino)methyl]phenyl}-1,3,4,5-tetrahydro-6H-azepino[5,4,3-cd]indol-6-one ((1S,4R)-7,7 dimethyl-2-oxobicyclo[2.2.1]hept-1-yl) methane-sulfonic acid salt, reference compound]
6 | at least 1 month | non-hygroscopic | improved | 53% | good | – | CNCc1ccc(-c2[nH]c3cc(F)cc4c3c2CCNC4=O)cc1.Cc1ccc(S(=O)(=O)O)cc1 [8-fluoro-2-{4-[(methylamino)methyl]phenyl}-1,3,4,5-tetrahydro-6H-azepino[5,4,3-cd]indol-6-oneTosylate]
